Patent publication US7820624B2, “Peptide ligands” (ICH Productions Limited, priority 2003, dated 2010)

Columns and labels:
[1] = system: human monocyte-derived immature dendritic cells; assay type: cell-based; conditions: 100,000 viral particles/cell
Text: Ad5 particles with the DC-binding peptides incorporated into the HI loop of the fibre protein were produced essentially as described previously ^12. Complementary oligonucleotides encoding the peptide sequences SHVKLNS [SEQ. ID. NO.:29] (5′ CC GGAAGCCACGTGAAGCTGAACAGCG 3′ [SEQ. ID. NO.:58] and 5′ CC GGCGCTGTTCAGCTTCACGTG GCTT 3′[SEQ. ID. NO.:59]) or APSNSTA [SEQ. ID. NO.:15] (5′ CC GGAGCCCCCAGCAACAGCACCGCCG 3′ [SEQ. ID. NO.:61] and 5′ CC GGCGGCGGTGCTGTTGCTGGG GGCT 3′ [SEQ. ID. NO.:62]) were synthesized (Operon Technologies, Alameda Calif. U.S.A.). The oligo pairs were then kinased, annealed, and ligated into the unique BspE1 site of pDV137 ^12, an expression construct encoding an Ad5 fibre protein with a double point mutant (KO1) which blocks CAR binding and a linker/restriction site in the HI loop, to create pDV178 (SHVKLNS) and pDV179 (APSNSTA). Following sequence confirmation, the plasmids were used to trans-complement the fibre-deleted vector Ad5.GFP.δF^18 by transient transfection into 293 cells as described ^19. Viral particles were purified by freeze/thaw lysis and CsCl gradient centrifugation and dialyzed into 40 mM TRIS-pH 8.1/0.9% NaCl/10% glycerol and stored at −80° C. Virus was quantified by protein assay (BioRad, Hercules Calif., U.S.A.) against BSA standards and using the relation 1 μg viral protein=4×10^9 viral particles.
Retargeted adenoviruses carrying a peptide A or B were used for the transduction experiments described below. Wild type adenovirus type 5 and type 5 adenovirus having a KO1 fibre, all supplied by Dr Dan von Seggern, and as described in Nicklin 2001 Mol Ther 2001 Dec.; 4(6):534-42), were used as controls.
(§1) Day 6 dendritic cells (see Example 1(v) above), or mouse bone marrow derived dendritic cells or mouse Sca1+ve stem cells, see (i) and (ii) above, were plated at 5×10^4 cells per well in a 48 well plate in 500 μl complete medium and allowed to settle for 3 hours at 37° C. Transductions were carried out in complete media, with virus being added at 100,000 viral particles/cell for 24 hours. Cells were harvested by scraping, spun down at 650 g (2000 rpm) for 5 min, resuspended in 300 μl PBS, and kept on ice before analysis. Viral transduction as determined by percentage of GFP positive cells was measured by FACS analysis. To measure percentage viability, 10 μl of 7-amino-actinomycin D (7AAD; Sigma, Poole, Dorset) was added immediately prior to analysis. Viral transduction of macrophages was carried out at 10,000 particles/cell in medium containing 2.5% FCS. For other cell types, cells were seeded overnight at 5×10^4 cells per well in 24-well plates in the appropriate media. Adenovirus was added in OptiMEM at 10,000 viral particles/cell, 1 ml per well in triplicate and incubated for 24 h at 37° C. Cells were then washed twice in PBS, trypsinised, triplicate wells pooled, spun down at 350×g for 5 min and resuspended in 300 μl PBS before analysis by flow cytometry where cell viability was to be measured, 10 μl 7AAD was added just prior to analysis.
Cells were pooled from three separate transduction experiments for the calculation of results.

[2] = system: human monocyte-derived primary macrophages; experiment: Adenoviral transduction of primary macrophages; assay type: cell-based; conditions: 10,000 viral particles/cell in 2.5% serum
Protocol: as §1
10 mls of peripheral blood were diluted 1:1 with HBSS then layered on Lymphoprep (Nycomed), spun at 750 g for 30 min and purified […] were isolated from the interface. Excess Lymphoprep was removed by spinning cells down at 250 g for 10 min and any platelets present were removed by washing in HBSS twice, spinning the cells at 1200 rpm for 10 min each time. Monocytes were then isolated using MACs CD14 microbeads as described in the manufacturer's protocol. The mononuclear cells were plated into a […] flask in 10% FCS, RPMI for 1-2 hours (1 flask per 10 ml blood) before removing the supernatant and adding fresh 10% FCS, RPMI+10 ng/ml MCSF (macrophage colony stimulating factor). Half the medium was replaced with fresh 10% FCS, RPMI+MCSF (10 ng/ml) after 48 hours and the cells were used at day 6, harvesting by scraping the cells from the well.
Viral transduction was carried out at 10,000 particles/cell in medium containing 2.5% FCS. Viral transduction as determined by percentage of GFP positive cells was measured by FACS analysis. Cells were pooled from three separate transduction experiments for the calculation of results.

[3] = system: mouse Sca1-positive stem cells; experiment: Adenoviral transduction of mouse Sca1+ve stem cells; assay type: cell-based
Protocol: Mouse bone marrow cells were isolated as above and Sca1+ve cells were isolated using MACs Sca1 microbeads (Miltenyi Biotec, Bisley, U.K.). These cells were plated at 7×10^4 cells/500 μl in RPMI with Glutamax-1 containing 30% FCS and penicillin/streptomycin and the following cytokines murine SCF (50 ng/ml; Preprotech, London, UK), IL-6 (20 ng/ml; Preprotech, London, UK) and Flt3-L (10 ng/ml) (R&D Systems, Oxford, U. K.).
as §1, with “To measure percentage viability, 10 μl of 7-amino-actinomycin D (7AAD; Sigma, Poole, Dorset) was added immediately prior to analysis. Viral transduction of macrophages was carried out at 10,000 particles/cell in medium containing 2.5% FCS. For other cell types, cells were seeded overnight at 5×10^4 cells per well in 24-well plates in the appropriate media. Adenovirus was added in OptiMEM at 10,000 viral particles/cell, 1 ml per well in triplicate and incubated for 24 h at 37° C.” left out

[4] = system: day 4 immature dendritic cells; experiment: Phenotyping of LID-transfected dendritic cells (HLA-DR, CD86); assay type: cell-based, human; conditions: LID with lipofectin, peptide:DNA 7:1
Protocol: Immature day 4 dendritic cells were transfected with LID complex with peptide A at a charge ratio 7:1 to the DNA (plasmid pEGFP-N1), with lipofectin added at a weight ratio of 0.75 to the DNA for 4 hours in RPMI before incubating in complete medium with cytokines for 24 hours. As a control, dendritic cells were incubated in complete medium for 24 hours (immature Dendritic cells) Cells were then harvested by scraping and stained for the presence of maturation markers as follows: a minimum of 5×10^4 cells in a volume of less than 2 ml medium were added to the recommended amount of antibody and incubated for 20 min on ice. 2 ml of ice-cold PBS was added before centrifugation at 300×g for 5 min at 4° C. The supernatant was flicked off and the pellet resuspended in 300 μl ice cold 1% paraformaldehyde-PBS. Cells from each sample were stained with antibodies to HLA-DR, and CD86 and isotype matched control antibodies. Cells were analysed by flow cytometry using a Epics XL (Beckman Coulter, High Wycombe, UK.) and the EXPO32 analysis software (Beckman Coulter).

Substance | Transduction (% GFP positive cells), donor A ([1]; complete medium, 24 hours, donor A) | Transduction (% GFP positive cells), donor B ([1]; complete medium, 24 hours, donor B) | Percentage cell death, donor A ([1]; donor A, 7AAD) | Percentage cell death, donor B ([1]; donor B, 7AAD) | Transduction, % cells transduced ([2]; listed as A) | Transduction, % cells transduced ([2]; listed as peptide A) | Transduction efficiency [3] | HLA-DR and CD86 on transfected cells [4]
SHVKLNS (Synthetic peptide binding to dendritic cells) [listing 1 of 2 here] | 64.2% | 78.9% | (12.0) % | (13.3) % | 67.6% | 67.6% | 5.4% | –
SHVKLNS (Synthetic peptide binding to dendritic cells) [listing 2 of 2 here] | – | – | – | – | – | – | – | upregulated CD86 and HLA-DR
